# Measurements reported in patent publication US11147796B2, “Agent for preventing or ameliorating hearing impairment” (Tohoku University, priority 2017, dated 2021).
# Legend:
# “m.1555A>G mutant” cells [1] = experiment: Cytotoxicity level (extracellular LDH activity) of BSO-treated cells; format: cell-based, human; conditions: BSO 100 μM, 48 hours
# Procedure: (§1) In the following Examples 2, 3, and 5, “m.1555A>G mutant” cells were obtained by skin reproductive to a patient having “m.1555A>G mutation” to obtain dermal fibroblasts, then 10% Primary culture was carried out in DMEM (low glucose) culture solution (manufactured by Nacalai Tesque, Inc) containing FBS (Fetal bovine serum) under the condition of 5% CO2/20% O2, at 37° C. and isolated. In the following Examples 4 and 5, the inner ear culture was carried out in DMEM (high glucose) culture medium containing 10% FBS (Fetal bovine serum) under the condition of 5% CO2/20% O2, at 37° C.
# [1] 2000 cells of “m.1555A>G mutant” cells were plated per well in a 96-well cell culture plate and cultured for 24 hours.
# [2] Glutathione synthesis inhibitor BSO (L-Buthionine sulphoximine) (manufactured by Sigma-Aldrich) was mixed in the culture solution to be 100 μM and cultured for 24 hours (BSO-treated group). As a control, “m.1555A>G mutant” cells were cultured for 24 hours in the absence of BSO (control treatment group). For the BSO-treated group, the compound #5 synthesized in Example 1 was mixed into the culture solution so as to be at various concentrations (0.3, 1, 3, 10, and 30 μM) and cultured for 48 hours (N=4). As a control, the cells were cultured in the absence of compound #5 (DMSO was added so as to be 0.01%.). Cell survival level was measured by MTT assay using Cell Counting Kit-8 (manufactured by Dojindo Laboratories). That is, 100 μL of Cell Count Reagent SF was added to each well, incubated for 2 hours, and after 3 seconds of stirring with a microplate reader, the absorbance was measured at 450 nm (reference 750 nm). In addition, the level of cytotoxicity was detected by measuring lactate dehydrogenase (LDH) activity released extracellularly using Cytotoxicity LDH Assay Kit-WST (manufactured by Dojindo Laboratories). That is, 100 μL each of Working Solution prepared in each well was added, incubated for 30 minutes, Stop Solution was added in 50 μL each, and after stirring for 3 seconds with a microplate reader, the absorbance was measured at 490 nm (reference 750 nm).
# “m.1555A>G mutant” cells [2] = experiment: Cell survival level (MTT assay, Cell Counting Kit-8) of BSO-treated cells; format: cell-based, human; conditions: BSO 100 μM, 48 hours
# Procedure: as §1
# [1] […]
# [2] […] Cell survival level was measured by MTT assay using Cell Counting Kit-8 (manufactured by Dojindo Laboratories). That is, 100 μL of Cell Count Reagent SF was added to each well, incubated for 2 hours, and after 3 seconds of stirring with a microplate reader, the absorbance was measured at 450 nm (reference 750 nm). In addition, the level of cytotoxicity was detected by measuring lactate dehydrogenase (LDH) activity released extracellularly using Cytotoxicity LDH Assay Kit-WST (manufactured by Dojindo Laboratories). That is, 100 μL each of Working Solution prepared in each well was added, incubated for 30 minutes, Stop Solution was added in 50 μL each, and after stirring for 3 seconds with a microplate reader, the absorbance was measured at 490 nm (reference 750 nm).
# outer hair cells = experiment: Survival rate of outer hair cells in cultured inner ear with cisplatin; format: cell-based, C57BL/6J mouse; conditions: 48 hours
# Procedure: as §1
# [1] The inner ear of C57BL/6J mouse (hereinafter referred to as “P3 mouse”) on the third day after birth was isolated and cultured in a culture solution for 24 hours.
# [2] […] Thereafter, washing with TBS (TBST) solution containing 0.3% Triton X-100 for 5 minutes was repeated twice, followed by taking photograph with a fluorescence microscope (BZ-9000, manufactured by Keyence) and observed using BZ-H1 software (manufactured by Keyence). From the obtained image, the number of cells and the number of damaged cells, each of which has a shape of 200 μm each corresponding to each part of the apex turn, the media turn, and the basilar turn, were measured and 3 parts of the cochlea (apex, media, basilar) were calculated from the survival rate (%) of the outer hair cells and the inner hair cells. […]
structure (smiles),measurement,setting,value
"O=C(CC(C(=O)O)c1c[nH]c2ccccc12)c1ccc(F)cc1F (stereo not shown) [compound #5, 4-(2,4-Difluorophenyl)-2-(1H-indol-3-yl)-4-oxo-butanoic Acid]",increase in the level of cytotoxicity,"“m.1555A>G mutant” cells [1]; compound 3 μM, vs BSO-treated DMSO",a significant difference was observed
same,increase in the level of cytotoxicity,“m.1555A>G mutant” cells [1]; compound at least 0.3 μM,suppressed
same,increase in the level of cytotoxicity,“m.1555A>G mutant” cells [1]; compound at least 1 μM,reduced to a level almost unchanged from that of the control group
same,decrease in cell survival level,“m.1555A>G mutant” cells [2]; compound 10 μM,significantly suppressed
same,decrease in cell survival level,“m.1555A>G mutant” cells [2]; compound at least 1 μM,inhibited
same,survival rate of the outer hair cells,"outer hair cells; cisplatin 10 μM, compound 0, 1, 5, 10, 50 μM",increases in a concentration-dependent manner
same,survival rate of the outer hair cells,"outer hair cells; compound 10 μM, cisplatin 0, 5, 7.5, 10, 15, 20 μM, apex, media, basilar",increased as compared with the DMSO-treated group
